As usually defined, the IC50 is the concentration that gives 50% inhibition.

For one experiment, the target named is T1, recombinant human Mcl-1 (Homo sapiens, UniProt Q07820).
T1 construct: C-terminally 6×His tagged Mcl-1 containing residues 171-327; made in house
In words: Cell free Mcl-1:Bim affinity assay (Mcl-1 HTRF, TR-FRET). The class given is binding. The conditions noted are these: inhibition of Mcl-1/Bim interaction. A general note: TR-FRET usually uses a lanthanide donor and a delayed reading to cut background.

Experiment [1] addresses T2, Mcl-1/Bak protein-protein interactions (Homo sapiens, UniProt Q07820).
T2 construct: expressed in transfected cells; host or cells: HEK 293 M cells, transient transfection
The experiment is described as follows: Cell-based split luciferase complementation assay. The note with it: HEK 293 M cells, serum-free, 4 h.

A further experiment deals with OPM-2. The experiment is described as follows: Cell viability assay (OPM-2 10 FBS, CellTiter-Glo). The class given is cell-based, human. The note with it: OPM-2 cells.

T2 sequence (Q07820 whole entry): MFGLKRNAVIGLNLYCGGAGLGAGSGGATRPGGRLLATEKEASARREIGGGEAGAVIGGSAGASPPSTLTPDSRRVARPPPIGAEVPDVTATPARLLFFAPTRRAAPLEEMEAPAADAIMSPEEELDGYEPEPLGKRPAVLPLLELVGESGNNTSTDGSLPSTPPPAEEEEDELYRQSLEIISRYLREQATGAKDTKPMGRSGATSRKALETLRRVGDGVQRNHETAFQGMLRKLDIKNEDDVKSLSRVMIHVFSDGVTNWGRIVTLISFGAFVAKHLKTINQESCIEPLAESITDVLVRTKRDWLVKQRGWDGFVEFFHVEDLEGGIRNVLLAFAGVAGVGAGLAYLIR
T1 sequence (Q07820 171-327): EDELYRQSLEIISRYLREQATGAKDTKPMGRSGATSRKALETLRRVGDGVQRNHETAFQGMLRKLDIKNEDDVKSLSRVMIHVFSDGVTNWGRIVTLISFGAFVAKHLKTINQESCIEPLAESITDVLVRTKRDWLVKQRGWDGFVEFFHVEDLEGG

Consider `CC1(C)CC/C=C/[C@H](O)[C@@H]2CC[C@H]2CN2C[C@@]3(CCCc4cc(Cl)ccc43)COc3ccc(cc32)C(=O)NS1(=O)=O` (single isomer, unassigned) [Example 40], for which the IC50 at recombinant human Mcl-1 was found to be 7.68 nM; in experiment [1], 297 nM; in the experiment with OPM-2 (Homo sapiens, OPM-2, 16 h), 7300 nM.
As for `C[C@H]1C/C=C/[C@H](O)[C@@H]2CC[C@H]2CN2C[C@@]3(CCCc4cc(Cl)ccc43)COc3ccc(cc32)C(=O)NS(=O)(=O)[C@@H]1CC1CC1` (single isomer, unassigned) [Example 58], the results for the IC50 (on recombinant human Mcl-1; in experiment [1]; in the experiment on OPM-2 (16 h)) were 0.917 nM, 48.2 nM and 496 nM, respectively.
In the same order, the values of `C[C@H]1C/C=C/[C@H](O)[C@@H]2CC[C@H]2CN2C[C@@]3(CCCc4cc(Cl)ccc43)COc3ccc(cc32)C(=O)NS(=O)(=O)[C@@H]1C1CC1` (single isomer, unassigned) [Example 44] are 0.297 nM, 21.5 nM and 208 nM.
Turning to `CCCCO[C@H]1/C=C/C[C@H](C)[C@@H](C)S(=O)(=O)NC(=O)c2ccc3c(c2)N(C[C@@H]2CC[C@H]21)C[C@@]1(CCCc2cc(Cl)ccc21)CO3` [Example 73, (1S,3′R,6′R,7′S,8′E,11′S,12′R)-7′-Butoxy-6-Chloro-11′,12′-Dimethyl-3,4-Dihydro-2H,15′H-Spiro[Naphthalene-1,22′ [20]Oxa[13]Thia[1,14]Diazatetracyclo[14.7.2.0^3,6.0^19,24]Pentacos A[8,16,18,24]Tetraen]-15′-One 13′,13′-Dioxide], the concentration for half-maximal inhibition (IC50) on recombinant human Mcl-1 was 0.367 nM; in experiment [1], 34.4 nM; with OPM-2 (Homo sapiens, OPM-2, 16 h) it was 174 nM.
For `CC1(C)C/C=C/[C@H](O)[C@@H]2CC[C@H]2CN2C[C@@]3(CCCc4cc(Cl)ccc43)COc3ccc(cc32)C(=O)NS(=O)(=O)C1` [Example 1, (1S,3′R,6′R,7′S,8′E)-6-Chloro-7′-Hydroxy-11′,11′-Dimethyl-3,4-Dihydro-2H,15′H-Spiro[Naphthalene-1,22′-[20]Oxa[13]Thia[1,14]Diazatetracyclo[14.7.2.0^3,6.0^19,24]Pentacos A[8,16,18,24]Tetraen]-15′-One 13′,13′-Dioxide] the same measures were 0.852 nM, 163 nM and 1880 nM.
As to `O=C1NS(=O)(=O)CCC/C=C/[C@H](O)[C@@H]2CC[C@H]2CN2C[C@@]3(CCCc4cc(Cl)ccc43)COc3ccc1cc32` [Example 8, (1S,3′R,6′R,7′S,8′E)-6-Chloro-7′-Hydroxy-3,4-Dihydro-2H,15′H-Spiro[Naphthalene-1,22′-[20]Oxa[13]Thia[1,14]Diazatetracyclo[14.7.2.0^3,6.0^19,24]Pentacos A[8,16,18,24]Tetraen]-15′-One 13′,13′-Dioxide], the IC50 on recombinant human Mcl-1 was found to be 0.977 nM; in experiment [1], 211 nM; in the experiment on OPM-2 (Homo sapiens, 16 h), 1680 nM.
In the case of `C[C@H]1C/C=C/[C@H](O)[C@@H]2CC[C@H]2CN2C[C@@]3(CCCc4cc(Cl)ccc43)COc3ccc(cc32)C(=O)NS(=O)(=O)[C@@H]1CC1CC1` (single isomer, unassigned) [Example 61], the IC50 at recombinant human Mcl-1 was found to be 2.67 nM; in experiment [1] it was 68.7 nM; in the experiment with OPM-2 (16 h), 1320 nM.
In the same order, the values of `C[C@H]1C/C=C/[C@H](O)[C@@H]2CC[C@H]2CN2C[C@@]3(CCCc4cc(Cl)ccc43)COc3ccc(cc32)C(=O)NS(=O)(=O)[C@@H]1C1CCC1` (single isomer, unassigned) [Example 55] are 15.2 nM, 863 nM and 8690 nM.

The record behind these values is patent US11685747B2, “Compounds that inhibit MCL-1 protein” (AMGEN INC., priority 2014, dated 2023).
